# According to PMC10098062 (Molecular Plant Pathology, 2023):
# Biological target: T1, SstF (SFN-sensing transcription factor, LysR family) (Xanthomonas campestris, UniProt Q8PAP2)
# T1 sequence (Q8PAP2 1-344): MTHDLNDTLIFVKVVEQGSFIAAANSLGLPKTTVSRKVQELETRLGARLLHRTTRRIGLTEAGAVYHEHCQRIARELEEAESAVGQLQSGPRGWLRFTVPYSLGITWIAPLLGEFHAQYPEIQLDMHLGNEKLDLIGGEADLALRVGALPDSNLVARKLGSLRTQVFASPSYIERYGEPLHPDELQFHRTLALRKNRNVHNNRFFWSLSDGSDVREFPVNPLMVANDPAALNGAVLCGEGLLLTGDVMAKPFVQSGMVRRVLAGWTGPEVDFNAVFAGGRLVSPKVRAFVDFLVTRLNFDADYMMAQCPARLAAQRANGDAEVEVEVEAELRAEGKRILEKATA
# Assay: SPR
# Assay type: binding
compound,measurement,value
"C[S+]([O-])CCCCN=C=S (stereo not shown) [SFN, Sulforaphane]",Kd,17.3 nM
